Measured values as given in US5180831A (priority 1990, dated 1993).
Entries after “also recorded” stand apart in the source; their conditions may differ.

Experiments:
in vivo [1] = details: mouse, im
AChE = assay type: biochemical, electric eel and human
in vivo [2] = details: mouse, po
[3] = mouse, in vivo
[4] = parameters: species or system Male ICR mice; details: mouse, in vivo
electric eel AChE = electric eel AChE (Electrophorus electricus, UniProt O42275); test: biochemical
human erythrocyte AChE = human erythrocyte AChE (Homo sapiens, UniProt P22303); test: biochemical; details: read-out: kobs /[I] (human)
human erythrocyte AChE, sequence (P22303-2 with tags, fused parts or gaps limits assumed): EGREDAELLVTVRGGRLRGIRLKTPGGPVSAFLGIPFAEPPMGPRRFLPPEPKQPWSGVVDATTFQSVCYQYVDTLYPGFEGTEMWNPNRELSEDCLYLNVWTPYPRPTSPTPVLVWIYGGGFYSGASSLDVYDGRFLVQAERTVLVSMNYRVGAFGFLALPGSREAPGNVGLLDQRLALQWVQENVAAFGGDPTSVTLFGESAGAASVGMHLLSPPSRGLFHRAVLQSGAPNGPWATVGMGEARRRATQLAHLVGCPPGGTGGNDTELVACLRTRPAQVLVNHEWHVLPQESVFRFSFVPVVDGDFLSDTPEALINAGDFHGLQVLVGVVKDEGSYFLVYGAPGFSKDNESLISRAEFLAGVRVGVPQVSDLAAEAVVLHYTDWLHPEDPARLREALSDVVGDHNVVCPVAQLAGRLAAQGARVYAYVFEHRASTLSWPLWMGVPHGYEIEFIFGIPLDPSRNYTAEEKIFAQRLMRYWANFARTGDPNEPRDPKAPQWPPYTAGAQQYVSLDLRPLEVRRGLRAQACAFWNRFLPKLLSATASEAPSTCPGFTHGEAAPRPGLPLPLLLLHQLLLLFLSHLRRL

electric eel AChE, sequence (O42275 24-633): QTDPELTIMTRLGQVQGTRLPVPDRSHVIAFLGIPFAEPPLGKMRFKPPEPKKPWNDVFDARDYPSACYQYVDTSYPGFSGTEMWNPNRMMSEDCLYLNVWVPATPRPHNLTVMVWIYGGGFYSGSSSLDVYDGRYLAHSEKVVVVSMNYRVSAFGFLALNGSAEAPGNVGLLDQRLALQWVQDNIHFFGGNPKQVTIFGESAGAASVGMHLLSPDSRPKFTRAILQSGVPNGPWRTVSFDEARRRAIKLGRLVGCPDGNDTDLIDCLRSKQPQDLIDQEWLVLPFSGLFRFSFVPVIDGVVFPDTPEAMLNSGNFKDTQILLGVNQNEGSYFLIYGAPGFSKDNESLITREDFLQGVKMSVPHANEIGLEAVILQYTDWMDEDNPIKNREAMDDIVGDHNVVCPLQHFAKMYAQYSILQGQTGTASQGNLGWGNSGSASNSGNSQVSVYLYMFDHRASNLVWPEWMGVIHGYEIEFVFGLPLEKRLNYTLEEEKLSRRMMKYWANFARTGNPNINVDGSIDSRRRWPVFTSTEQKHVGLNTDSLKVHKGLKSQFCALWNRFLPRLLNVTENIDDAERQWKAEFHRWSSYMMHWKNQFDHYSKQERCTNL

Row | Structure (SMILES) | LD50 at 24 h (in vivo [1]) | also measured
1 | C[n+]1ccccc1C=NOCc1ccccc1 [Compound 1a, O-Benzyl-N-(1-methyl-2-pyridinemethylene) hydroxylamine chloride] | 180 µmol/kg | mode of inhibition (AChE): pure competitive inhibition
2 | C[n+]1cccc(O)c1C=NOCc1ccccc1 [Compound 1b, O-Benzyl-N-(3-hydroxy-1-methyl-2-pyridinemethylene) hydroxylamine chloride] | > 880 µmol/kg | LD50 at 24 h (in vivo [2]): 3600 µmol/kg; mode of inhibition (AChE): pure competitive inhibition
3 | CON=Cc1c(O)ccc[n+]1C [Compound 1c, O-Methyl-N-(3-hydroxy-1-methyl-2-pyridinemethylene) hydroxylamine chloride] | > 1970 µmol/kg | 
4 | C[n+]1cccc(O)c1C=NOCc1ccc(Cl)cc1 [Compound 1d, O-(p-Chlorobenzyl)-N-(3-hydroxy-1-methyl-2-pyridinemethylene) hydroxylamine chloride] | > 320 µmol/kg | mode of inhibition (AChE): pure competitive inhibition
5 | COc1ccc(CON=Cc2c(O)ccc[n+]2C)cc1 [Compound 1e, O-(p-Methoxybenzyl)-N-(3-hydroxy-1-methyl-2-pyridinemethylene) hydroxylamine chloride] | > 760 µmol/kg | LD50 at 24 h (in vivo [2]): > 3200 µmol/kg; mode of inhibition (AChE): pure competitive inhibition
6 | C[n+]1cccc(O)c1C=NO [Compound 1f] |  | toxicity in words [3]: small increase in toxicity
7 | C[n+]1cc(O)ccc1C=NO [Compound 1g, reference compound] | > 514 µmol/kg | toxicity in words [3]: small increase in toxicity
8 | C[n+]1ccccc1/C=N/O [Compound 2-PAM, reference compound] | 853 µmol/kg | 
9 | C[n+]1cccc(O)c1C=NNC(N)=O.[Cl-] [Compound 3a, 2-[[(Aminocarbonyl)hydrazono]methyl]-3-hydroxy-1-methyl pyridinium chloride] | > 1100 µmol/kg | 
10 | C[n+]1cccc(O)c1C=NNC(=O)Nc1ccccc1.[Cl-] [Compound 3b, 3-Hydroxy-1-methyl-2-[[(N-phenylaminocarbonyl)hydrazono]methyl]pyridinium chloride] | > 40 µmol/kg | 
11 | C[n+]1ccccc1C=NNC(N)=O [Compound 3c] | > 560 µmol/kg | 
12 | C[n+]1ccccc1C=NNC(=O)Nc1ccccc1.[Cl-] [Compound 3d, 1-Methyl-2-[[(N-phenylaminocarbonyl)hydrazono]methyl]pyridinium chloride] | > 430 µmol/kg | 
13 | C[n+]1cccc(O)c1C=NNC(=O)C[n+]1ccccc1 [Compound 5a, 2-(3-Hydroxy-1-methyl-2-pyridinemethylene)-1-[2-(1-pyridinium)acetyl]hydrazine dichloride] | > 670 µmol/kg | LD50 at 24 h (in vivo [2]): 2900 µmol/kg; GA reactivator activity in words [4]: significant activity as GA reactivators; also recorded: good in vivo reactivators against GA
14 | C[n+]1ccccc1C=NNC(=O)C[n+]1ccccc1 [Compound 5b, 2-(1-Methyl-2-pyridinemethylene)-1-[2-(1-pyridinium)acetyl]hydrazine dichloride] | 380 µmol/kg | GA reactivator activity in words [4]: significant activity as GA reactivators; also recorded: good in vivo reactivators against GA
15 | NC(=O)c1cc[n+](COC[n+]2ccccc2/C=N/O)cc1 [HI-6, reference compound] | 4500 µmol/kg | 
16 | CNC(=O)Oc1ccc2c(c1)[C@]1(C)CCN(C)[C@@H]1N2C [Phy, Physostigmine] |  | kobs /[I] (eel) (electric eel AChE; 0.1 m phosphate buffer): 14000 M⁻¹ s⁻¹
17 | CN(C)C(=O)Oc1ccc[n+](C)c1 [Pyr, Pyridostigmine] |  | kinact/KI (human erythrocyte AChE): 13000 M⁻¹ s⁻¹; kinact/KI (electric eel AChE; read-out: kobs /[I] (eel)): 580 M⁻¹ s⁻¹
